# Like-named read-outs stand apart in the source and are kept apart here.
# Target: T1, MC4R (Homo sapiens, UniProt P32245)
# T1 construct: expressed in transfected cells; host or cells: HEK (Human Embryonic Kidney) permanent expression cell line HEK MC4R-Luc, co-expressing CRE-luciferase
# Assay: MCR agonistic activity (luciferase assay / cAMP accumulation assay) on MC4R
# Assay type: cell-based
# Conditions: HEK cell lines expressing MC4R, not said which
# Description: Physiological activity of the compounds of the present invention was assessed by measuring agonistic activity as well as binding activity for melanocortin receptors (MCR) according to methods A and B explained as follows.
# As one of the methods to measure MCR agonistic activity of the compound according to the present invention, the expression level of a marker gene (for example, luciferase) which increases proportionally according to the increase of cAMP content in the cell, was measured.
# First, permanent expression HEK (Human Embryonic Kidney) cell lines (HEK MC1R-Luc, MC3R-Luc, MC4R-Luc or MC5R-Luc) expressing the MCR gene of each subtype together with luciferase gene (CRE-LUC) under the control of CRE (cAMP Response Element) were constructed. The above cell lines were incubated in an incubator with 6% CO2 atmosphere at 37° C. using selection medium, DMEM(Dulbecco's Modified Eagles Medium) containing 10% heat-inactivated fetal bovine serum (Gibco/BRL), 100 unit/ml, penicillin (Gibco/BRL), 100 unit/ml streptomycin (Gibco/BRL), and 200 μg/ml geneticin (G418) (Gibco/BRL). When the cell covered 70% of total surface of the culture dish with 100 mm diameter, the culture dish was rinsed one time with 10 ml Phosphate Buffered Saline(PBS) free of Ca^++ and Mg^++, and then 3 ml PBS solution containing 0.05% trypsin and 0.53 mM EDTA was added thereto. After the trypsin/EDTA solution was removed, the cell lines were incubated in an thermostatic incubator for 1 minute at 37° C., and resuspended in 10 ml selection medium and centrifuged for 5 minutes at 1500 rpm. The supernatant was discarded and the settled cells were resuspended in 5 ml selection medium free of Phenol Red. The resulting cell-suspension was plated onto each well of 96-well culture plates for Luminometer(Costar) with a concentration of 5×10^4 cell in 100 μl culture medium for each well and incubated in the incubator with 6% CO2 atmosphere at 37° C. for 18 hours. With MCR agonists (Example compounds) diluted stepwise using the above culture medium, the cells were treated under the condition of the final DMSO concentration not exceeding 1%, and incubated for 5 hours in the atmosphere of 6% CO2 at 37° C. Then, 50 μl Bright-Glo (Promega) was added to each well. After allowing the treated cells to be at room temperature for 15 minutes, luminescence was measured for each well by using luminometer (Victor). The level of luminescence induced by the stepwise-diluted agonist was converted to relative % value to those by the treatment of 10 nM NDP-MSH. The EC50 indicates the concentration of each agonist for inducing 50% of maximal luminescence by each agonist and this value was measured by a statistical software (Prizm).
# B. cAMP Accumulation Assay
# As another method to measure MCR agonistic activity of the compound according to the present invention, an increase of cAMP amount in the cell was measured.
# First, permanent expression HEK (Human Embryonic Kidney) cell lines (HEK MC1R-Luc, MC3R-Luc, MC4R-Luc or MCSR-Luc) expressing the MCR gene of each subtype were plated onto each well of 24-well culture plates for Luminometer(Costar) with a concentration of 2×10^5 cell in 1 ml culture medium for each well, and then incubated in an incubator with 6% CO2 atmosphere at 37° C. for 24 hours. The medium was removed from each well followed by rinsing with 0.5 ml cold DMEM one time. With MCR agonists (Example compounds) diluted stepwise using 200 μl DMEM including 500 μM IBMX (isobutylmethylxanthine), the cells were treated under the condition of the final DMSO concentration not exceeding 1%, and incubated for 30 minutes in the atmosphere of 6% CO2 at 37° C. Then, the cAMP amount in each cell was measured using Amersham cAMP assay Kit (TRK432).
# More specifically, 14.4 μl of 6M PCA (60%) was added to each well, and allowed to be in ice for 10 minutes, and 200 μl sample was taken from each well and transferred to microcentrifuge tube. […]
# [1] = method A (CRE-luciferase) or B (cAMP accumulation), read-out: EC50 value, agonistic activity to MC4R (range per group of Examples)
# [2] = specific activities of representative compounds, method A or B, read-out: EC50
# T1 sequence (P32245 whole entry, species assumed): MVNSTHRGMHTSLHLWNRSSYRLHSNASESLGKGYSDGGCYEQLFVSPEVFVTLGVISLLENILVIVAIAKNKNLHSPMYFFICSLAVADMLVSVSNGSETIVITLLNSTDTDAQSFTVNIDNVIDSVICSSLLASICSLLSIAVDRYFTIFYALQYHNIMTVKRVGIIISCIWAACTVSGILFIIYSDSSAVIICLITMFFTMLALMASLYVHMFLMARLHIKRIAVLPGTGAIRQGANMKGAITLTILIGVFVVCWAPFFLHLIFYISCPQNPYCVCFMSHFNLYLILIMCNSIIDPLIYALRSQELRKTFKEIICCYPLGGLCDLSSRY
EC50 [1] [nM],EC50 [2] [nM],Structure (SMILES)
0.1 to 10,–,"CN1CCN(C(=O)[C@@H]2C[C@H](N(C(=O)[C@@H]3CCCO3)C3CCC(C)(C)CC3)CN2C(=O)[C@@H]2CN(c3ccccn3)C[C@H]2c2ccc(Cl)cc2)CC1 [Example 65, (2S)-N-{(3S,5S)-1-{[(3S,4R)-4-(4-chlorophenyl)-1-pyridine-2-ylpyrrolidin-3-yl]carbonyl}-5-[(4-methylpiperazin-1-yl)carbonyl]pyrrolidin-3-yl}-N-(4,4-dimethylcyclohexyl)tetrahydrofuran-2-carboxamide]"
0.1 to 10,8,CN1CCN(C(=O)[C@@H]2C[C@H](N(C(=O)[C@@H]3CCCO3)C3CCC(C)(C)CC3)CN2C(=O)[C@@H]2CN(c3cccnn3)C[C@H]2c2ccc(F)cc2F)CC1 [Example 45]
0.1 to 10,4,"CN1CCN(C(=O)[C@H]2C[C@H](N(C(=O)[C@@H]3CCCO3)C3CCC(C)(C)CC3)CN2C(=O)[C@@H]2CN(C(C)(C)C)C[C@H]2c2ccc(F)cc2F)CC1 [Example 32, (2S)-N-{(3S,5R)-1-{[(3S,4R)-1-tert-butyl-4-(2,4-difluorophenyl)pyrrolidin-3-yl]carbonyl}-5-[(4-methylpiperazin-1-yl)carbonyl]pyrrolidin-3-yl}-N-(4,4-dimethylcyclohexyl)tetrahydrofuran-2-carboxamide]"
0.1 to 10,3,"CN1CCN(C(=O)[C@@H]2C[C@H](N(C(=O)[C@@H]3CCCO3)C3CCC(C)(C)CC3)CN2C(=O)[C@@H]2CN(C(C)(C)C)C[C@H]2c2ccc(Cl)cc2)CC1 [Example 3, (2S)-N-{(3S,5S)-1-{[(3S,4R)-1-tert-butyl-4-(4-chlorophenyl)pyrrolidin-3-yl]carbonyl}-5-[(4-methylpiperazin-1-yl)carbonyl]pyrrolidin-3-yl}-N-(4,4-dimethylcyclohexyl)tetrahydrofuran-2-carboxamide]"
10 to 100,–,"CC(=O)N(C1CCC(C)(C)CC1)[C@H]1C[C@@H](C(=O)N2CCN(C)CC2)N(C(=O)[C@@H]2CN(C(C)(C)C)C[C@H]2c2ccc(F)cc2F)C1 [Example 5, N-{(3S,5S)-1-{[(3S,4R)-1-tert-butyl-4-(2,4-difluorophenyl)pyrrolidin-3-yl]carbonyl}-5-[(4-methylpiperazin-1-yl)carbonyl]pyrrolidin-3-yl}-N-(4,4-dimethylcyclohexyl)acetamide]"
0.1 to 10,–,"CN1CCN(C(=O)[C@@H]2C[C@H](N(C(=O)C(C)(C)C)C3CCC(C)(C)CC3)CN2C(=O)[C@@H]2CN(C(C)(C)C)C[C@H]2c2ccc(F)cc2F)CC1 [Example 11, N-{(3S,5S)-1-{[(3S,4R)-1-tert-butyl-4-(2,4-difluorophenyl)pyrrolidin-3-yl]carbonyl}-5-[(4-methylpiperazin-1-yl)carbonyl]pyrrolidin-3-yl}-N-(4,4-dimethylcyclohexyl)-2,2-dimethylpropanamide]"
10 to 100,–,"CC(C)N1CCN(C(=O)[C@@H]2C[C@H](N(C(=O)[C@@H]3CCCO3)C3CCC(C)(C)CC3)CN2C(=O)[C@@H]2CN(C3CCOCC3)C[C@H]2c2ccc(F)cc2F)CC1 [Example 47, (2S)-N-{(3S,5S)-1-{[(3S,4R)-4-(2,4-difluorophenyl)-1-(tetrahydro-2H-pyran-4-yl)pyrrolidin-3-yl]carbonyl}-5-[(4-isopropylpiperazin-1-yl)carbonyl]pyrrolidin-3-yl}-N-(4,4-dimethylcyclohexyl)tetrahydrofuran-2-carboxamide]"

# The next lines start with the molecule.
Structure (SMILES),EC50 [1] [nM],EC50 [2] [nM]
"CN1CCN(C(=O)[C@@H]2C[C@H](N(C(=O)C(C)(C)C)C3CCC(C)(C)CC3)CN2C(=O)[C@@H]2CN(c3ccccn3)C[C@H]2c2ccc(Cl)cc2)CC1 [Example 64, N-{(3S,5S)-1-{[(3S,4R)-4-(4-chlorophenyl)-1-pyridine-2-ylpyrrolidin-3-yl]carbonyl}-5-[(4-methylpiperazin-1-yl)carbonyl]pyrrolidin-3-yl}-N-(4,4-dimethylcyclohexyl)-2,2-dimethylpropanamide]",10 to 100,–
"CN1CCN(C(=O)[C@@H]2C[C@H](N(C(=O)C(C)(C)C)[C@H]3CC[C@@H](C)CC3)CN2C(=O)[C@@H]2CN(C(C)(C)C)C[C@H]2c2ccc(F)cc2F)CC1 [Example 18, N-{(3S,5S)-1-{[(3S,4R)-1-tert-butyl-4-(2,4-difluorophenyl)pyrrolidin-3-yl]carbonyl}-5-[(4-methylpiperazin-1-yl)carbonyl]pyrrolidin-3-yl}-2,2-dimethyl-N-(cis-4-methylcyclohexyl)propanamide]",0.1 to 10,–
"CC(=O)N([C@H]1C[C@H](C(=O)N2CCN(C(C)C)CC2)N(C(=O)[C@@H]2CN(C(C)(C)C)C[C@H]2c2ccc(Cl)cc2)C1)[C@H]1CC[C@@H](C)CC1 [Example 39, N-{(3S,5R)-1-{[(3S,4R)-1-tert-butyl-4-(4-chlorophenyl)pyrrolidin-3-yl]carbonyl}-5-[(4-isopropylpiperazin-1-yl)carbonyl]pyrrolidin-3-yl}-N-(cis-4-methylcyclohexyl)acetamide]",0.1 to 10,–
"CC(=O)N(C1CCC(C)(C)CC1)[C@H]1C[C@@H](C(=O)N2CCN(C)CC2)N(C(=O)[C@@H]2CN(C(C)(C)C)C[C@H]2c2ccc(Cl)cc2)C1 [Example 1, N-{(3S,5S)-1-{[(3S,4R)-1-tert-butyl-4-(4-chlorophenyl)pyrrolidin-3-yl]carbonyl}-5-[(4-methylpiperazin-1-yl)carbonyl]pyrrolidin-3-yl}-N-(4,4-dimethylcyclohexyl)acetamide]",0.1 to 10,10
"CC(=O)N(C1CCC(C)CC1)[C@H]1C[C@H](C(=O)N2CCN(C)CC2)N(C(=O)[C@@H]2CN(C3CCOCC3)C[C@H]2c2ccc(Cl)cc2)C1 (stereo partly drawn) [Example 54, N-{(3S,5R)-1-{[(3S,4R)-4-(4-chlorophenyl)-1-(tetrahydro-2H-pyran-4-yl)pyrrolidin-3-yl]carbonyl}-5-[(4-methylpiperazin-1-yl)carbonyl]pyrrolidin-3-yl}-N-(4-methylcyclohexyl)acetamide]",0.1 to 10,–
"CN1CCN(C(=O)[C@@H]2C[C@H](N(C(=O)[C@@H]3CCCO3)[C@H]3CC[C@@H](C)CC3)CN2C(=O)[C@@H]2CN(c3ccc(=O)n(C)n3)C[C@H]2c2ccc(Cl)cc2)CC1 [Example 72, (2S)-N-{(3S,5S)-1-{[(3S,4R)-4-(4-chlorophenyl)-1-(1-methyl-6-oxo-1,6-dihydropyridazine-3-yl)pyrrolidin-3-yl]carbonyl}-5-[(4-methylpiperazin-1-yl)carbonyl]pyrrolidin-3-yl}-N-(cis-4-methylcyclohexyl)tetrahydrofuran-2-carboxamide]",0.1 to 10,–
"Cc1ccccc1N1C[C@@H](C(=O)N2C[C@@H](N(C(=O)[C@@H]3CCCO3)[C@H]3CC[C@@H](C)CC3)C[C@H]2C(=O)N2CCN(C)CC2)[C@H](c2ccc(Cl)cc2)C1 [Example 71, (2S)-N-{(3S,5S)-1-{[(3S,4R)-4-(4-chlorophenyl)-1-(2-methylphenyl)pyrrolidin-3-yl]carbonyl}-5-[(4-methylpiperazin-1-yl)carbonyl]pyrrolidin-3-yl}-N-(cis-4-methylcyclohexyl)tetrahydrofuran-2-carboxamide]",1000 to 10000,–
CC(C)(C)C(=O)N(c1ccc(F)cc1F)[C@H]1C[C@@H](C(=O)N2CCNCC2)N(C(=O)[C@@H]2CN(C(C)(C)C)C[C@H]2c2ccc(Cl)cc2)C1 [Example 81],0.1 to 10,–

# Source: patent US8183243B2, “Melanocortin receptor agonists” (LG Life Sciences Ltd., priority 2008, dated 2012)
